Structures can show the parent of a compound that is named as a salt.
How the values were obtained:
[1] = system: PC12 cells; test: Neuroprotection of PC12 cells against serum-deprivation induced apoptosis (MTT test); assay type: cell-based, rat
Procedure: Rat PC12 cells, originated from rat pheochromocytoma, were grown at 37° C., in a humid 5% CO2, 95% air environment, in a growth medium containing Dulbecco's modified Eagle's Medium (DMEM, GIBCO, BRL) supplemented with glucose (1 mg/1 ml), 5% fetal calf serum, 10% horse serum, and 1% of a mixture of streptomycin/penicillin. On confluence, the culture was removed and the cells were detached by vigorous washing, centrifuged at 200 g for 5 min and resuspended in DMEM with full serum content. 0.5×10^4 cells/well were placed in microtiter plates (96 wells) precoated with collagen (10 μg/cm^2 were allowed to attach for 24 h before treatment).
Twenty-four hours after attachment of the PC12 cells as described in (g), the medium was replaced with DMEM containing 0.1% BSA. The test compounds were added to the cells after 1 h of incubation. After 24 h incubation, the cells were subjected to MTT test as previously described (Gassen et al., 1998). The absorption was determined in a Perkin-Elmer Dual Wavelength Eliza-Reader at λ=570/650 nm after automatic subtraction of background readings. The results are expressed as percentage of the untreated control.
PC12 cells were grown in serum-free medium alone or in serum-free medium with different concentration of the chelators VK-28, M32, HLA20 and Rasagiline. After 24 h incubation, the cells were subjected to MTT test.
Cell viability was expressed as a percentage of cells cultured in medium supplemented with serum, which served as the control group and was designated as 100%. […] Experimental data are shown as mean±SD (r=6).

[2] = biological target: T1, rat brain MAO-A (Rattus norvegicus, UniProt P21396); test: In vitro inhibition of rat brain MAO-A; assay type: biochemical; settings: rat brain homogenate
T1 construct: from tissue; host or cells: rat brain homogenate, 4500 g pellet
T1 sequence (P21396 1-526): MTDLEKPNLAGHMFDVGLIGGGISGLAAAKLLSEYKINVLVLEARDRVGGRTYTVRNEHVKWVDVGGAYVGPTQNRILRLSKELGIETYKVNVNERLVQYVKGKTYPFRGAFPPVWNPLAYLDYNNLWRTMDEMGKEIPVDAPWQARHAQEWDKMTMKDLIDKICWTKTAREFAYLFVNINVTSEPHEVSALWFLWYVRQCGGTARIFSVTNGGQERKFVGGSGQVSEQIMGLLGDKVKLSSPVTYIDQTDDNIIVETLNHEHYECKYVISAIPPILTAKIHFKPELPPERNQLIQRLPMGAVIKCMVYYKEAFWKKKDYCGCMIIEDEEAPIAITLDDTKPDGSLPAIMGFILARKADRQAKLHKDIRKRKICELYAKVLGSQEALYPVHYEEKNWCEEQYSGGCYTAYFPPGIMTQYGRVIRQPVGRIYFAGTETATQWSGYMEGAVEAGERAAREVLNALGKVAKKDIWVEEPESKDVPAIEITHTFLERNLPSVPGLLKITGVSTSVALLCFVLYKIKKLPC
Procedure: (§1) Rats were decapitated and the brains were quickly taken into a weighted ice-cold sucrose buffer (0.32 M), and their weights were determined. All subsequent procedures were performed at 0-4° C. The brains were homogenized in 0.25 M sucrose (one part tissue to 20 parts sucrose) in a Teflon glass homogenizer followed by the addition of sucrose buffer to a final concentration of 10% homogenate. The homogenates were centrifuged at 600 g for 15 min. The supernatant fraction was taken out and centrifuged at 4500 g for 30 min, the pellet was diluted in 0.32 M sucrose buffer and kept frozen for later assaying of MAO. Protein concentration was determined with Bradford reagent at 595 nm, using bovine serum albumin as a standard.
(§2) The test compound was added to a suitable dilution of the enzyme preparation (70 μg protein for MAO-B and 150 μg MAO-A assay) in 0.05 M phosphate buffer (pH 7.4). The mixture was incubated together with […], a specific inhibitor of MAO-B (for determination of MAO-A) or […] clorgylin, a specific inhibitor of MAO-A (for determination of MAO-B). Incubation was carried for 1 h at 37° C. before addition of ^14C-5-hydroxytryptamine binoxalate ([…]) for determination of MAO-A, or ^14C-phenylethylamine 100 µM for determination of MAO-B, and incubation continued for 30 min or 20 min, respectively. The reaction was stopped with 2 M ice-cold citric acid, and the metabolites were extracted and determined by liquid-scintillation counting in cpm units.
(§3) MAO-A and MAO-B activities were determined in rat brain homogenate in vitro following incubation with varying concentrations of the test compounds.
In another experiment, the in vitro inhibitory activity of HLA20, M32, VK-28, M30, M31, and propargylamine (P) was tested against rat brain MAO-A. The test compounds were added to buffer containing 10^−7M deprenyl and were incubated with the tissue homogenate for 60 min at 37° C. before addition of ^14C-5-hydroxytryptamine. MAO-A activity in presence of the test compound was expressed as a percentage of that in control samples.

[3] = biological target: T2, rat brain MAO-B (Rattus norvegicus, UniProt P19643); test: In vitro inhibition of rat brain MAO-B; assay type: biochemical; settings: 100 μM; read-out: inhibition of MAO-B
T2 construct: from tissue; host or cells: rat brain homogenate, 4500 g pellet
T2 sequence (P19643 1-520): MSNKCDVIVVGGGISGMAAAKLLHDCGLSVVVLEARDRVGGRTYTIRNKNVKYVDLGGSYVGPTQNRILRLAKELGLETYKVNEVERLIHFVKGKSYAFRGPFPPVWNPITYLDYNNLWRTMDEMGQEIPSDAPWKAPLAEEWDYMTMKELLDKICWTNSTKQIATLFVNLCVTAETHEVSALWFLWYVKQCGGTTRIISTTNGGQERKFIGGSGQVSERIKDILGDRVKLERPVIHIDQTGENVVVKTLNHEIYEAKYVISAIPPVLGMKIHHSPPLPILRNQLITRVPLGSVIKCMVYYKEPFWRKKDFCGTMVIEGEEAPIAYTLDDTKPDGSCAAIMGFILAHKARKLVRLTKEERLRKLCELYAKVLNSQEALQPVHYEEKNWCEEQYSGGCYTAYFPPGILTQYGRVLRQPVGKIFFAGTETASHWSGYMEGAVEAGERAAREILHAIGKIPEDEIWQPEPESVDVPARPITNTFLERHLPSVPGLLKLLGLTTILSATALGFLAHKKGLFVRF
Procedure: as §1, §2, §3
MAO-B activity in presence of the test compound was expressed as a percentage of that in control samples.

NC(Cc1ccc(O)c2ncccc12)C(=O)O (racemic) (as salt: salt) [HLM8, DL-3-(8-hydroxyquinolin-5-yl)alanine]
melting point: 194 °C (dec.)

CCOC(=O)C(CS)NCc1ccc(O)c2ncccc12 (stereo not drawn) [Compound M32]
number of survival cells (cell viability, % of cells cultured with serum) ([1]; 0.1 μM chelator, serum-free medium, 24 h, serum-free control 38%): 59% | change in the protection against PC12 cell death induced by serum withdrawal ([1]; 1 or 10 μM, compared with 0.1 μM): no significant change in the protection | effect on MAO-A [2]: almost no effect | inhibition at 100 µM [3]: 17.2%

CCOC(=O)C(C)(NC(=O)Cc1ccc(O)c2ncccc12)C(=O)OCC [HLM7, diethyl 8-hydroxyquinolin-5-yl-methyl-acetamidomalonate]
melting point: 153 to 154 °C
